The record followed here is patent US20260232812A1, “BIFUNCTIONAL MOLECULES FOR TARGETED PROTEIN DEGRADATION” (Amphista Therapeutics Limited, priority 2022, published 2026).

The first experiment has as its target T1, BRD4 (Homo sapiens, UniProt O60885).
T1 construct: HEK293 containing a HiBit insertion for BRD4; endogenous in cells; host or cells: HEK293 with a HiBiT insertion for BRD4
Kind of experiment: Assay 1 - Degradation of HiBit-BRD4 in HEK293. The format is cell-based. Particulars: HiBit-BRD4 in HEK293, 6 h treatment. The method, then:
1.1 Assay 1-Degradation of HiBit-BRD4 in HEK293
HEK293 containing a HiBit insertion for BRD4 were plated in 384-well tissue culture plates at a density of 8×10^4 per well in a volume of 36 μL and incubated overnight at 37° C. and 5% CO2. Wells were treated with test compounds for 6 h prior to addition of the NanoLuc substrate and reading on a […]. Degradation data was plotted and analysed using […] (Graphpad).
As to `COc1ccc([C@@H]2CN(C(=O)/C(C#N)=C/C(C)(C)C)C[C@H]2C(=O)NCCOCCOCCOCCOCCOCCNC(=O)c2ccc(-c3ccc4c(c3)[C@H](Nc3ccc(Cl)cc3)C[C@H](C)N4C(C)=O)cc2)cc1` [Example 15aa], the DC50 lay within 25 to 200 nM and the maximal degradation (Dmax) is ≥ 70%.

As for `CC(=O)N1c2ccc(-c3ccc(C(=O)NCCOCCOCCOCCOCCOCCNC(=O)CN4CCC(C5CCCN5C(=O)/C(C#N)=C/c5cscn5)CC4)cc3)cc2[C@H](Nc2ccc(Cl)cc2)C[C@@H]1C` (some centres unmarked) [Example 14a], the 50% degradation concentration (DC50) was 25 to 200 nM and the Dmax was ≥ 70%.

Regarding `CC(=O)N1c2ccc(-c3ccc(C(=O)NCCOCCOCCOCCOCCOCCNC(=O)C4CC(C5CC5)CN(C(=O)/C(C#N)=C/c5nccs5)C4)cc3)cc2[C@H](Nc2ccc(Cl)cc2)C[C@@H]1C` (some centres unmarked) [Example 13u], the 50% degradation concentration (DC50) is < 25 nM and the Dmax was ≥ 70%.

Turning to `CC(=O)N1c2ccc(-c3ccc(C(=O)NCCOCCOCCOCCOCCOCCNC(=O)C4CC(C(C)C)CN(C(=O)/C(C#N)=C/c5nccs5)C4)cc3)cc2[C@H](Nc2ccc(Cl)cc2)C[C@@H]1C` (some centres unmarked) [Example 13k], the half-maximal degradation concentration (DC50) is < 25 nM and the Dmax was ≥ 70%.

On to `CC(=O)N1c2ccc(-c3ccc(C(=O)NCCOCCOCCOCCOCCOCCNC(=O)C4CC(C(C)C)CN(C(=O)/C(C#N)=C/c5ccc(F)cc5)C4)cc3)cc2[C@H](Nc2ccc(Cl)cc2)C[C@@H]1C` (some centres unmarked) [Example 13n], for which the DC50 is > 200 nM and the Dmax was 50 to 70%.

Regarding `CC(=O)N1c2ccc(-c3ccc(C(=O)NCCOCCOCCOCCOCCOCCNC(=O)C4CC(c5ccccc5)CN(C(=O)/C(C#N)=C/c5nccs5)C4)cc3)cc2[C@H](Nc2ccc(Cl)cc2)C[C@@H]1C` (some centres unmarked) [Example 13z], the DC50 was < 25 nM and the Dmax was ≥ 70%.

Consider `CC(=O)N1c2ccc(-c3ccc(C(=O)NCCOCCOCCOCCOCCOCCNC(=O)C4CC(c5cccc(C)c5)CN(C(=O)/C(C#N)=C/C(C)(C)C)C4)cc3)cc2[C@H](Nc2ccc(Cl)cc2)C[C@@H]1C` (some centres unmarked) [Example 13au], for which the DC50 fell in the range of 25 to 200 nM and the Dmax is ≥ 70%.

`CC(=O)N1c2ccc(-c3ccc(C(=O)NCCOCCOCCOCCOCCOCCNC(=O)[C@@H]4CN(C(=O)/C(C#N)=C/c5nccs5)C[C@H]4c4ccccc4)cc3)cc2[C@H](Nc2ccc(Cl)cc2)C[C@@H]1C` [Example 15u] gave a half-maximal degradation concentration (DC50) of 25 to 200 nM and a Dmax of 50 to 70%.

`CC(=O)N1c2ccc(-c3ccc(C(=O)NCCOCCOCCOCCOCCOCCNC(=O)[C@@H]4CN(C(=O)/C(C#N)=C/c5ccn(C)n5)C[C@H]4C4CCCCC4)cc3)cc2[C@H](Nc2ccc(Cl)cc2)C[C@@H]1C` [Example 15r]: the DC50 is > 200 nM and the maximal degradation (Dmax) is 50 to 70%.

On to `CC(=O)N1c2ccc(-c3ccc(C(=O)NCCOCCOCCOCCOCCOCCNC(=O)[C@@H]4CN(C(=O)/C(C#N)=C/c5ccc(F)cc5)C[C@H]4C(C)C)cc3)cc2[C@H](Nc2ccc(Cl)cc2)C[C@@H]1C` [Example 15i], for which the half-maximal degradation concentration (DC50) is > 200 nM and the Dmax was 50 to 70%.

The target of another experiment is T2, BRD9 (Homo sapiens, UniProt Q9H8M2).
T2 sequence (Q9H8M2 1-597): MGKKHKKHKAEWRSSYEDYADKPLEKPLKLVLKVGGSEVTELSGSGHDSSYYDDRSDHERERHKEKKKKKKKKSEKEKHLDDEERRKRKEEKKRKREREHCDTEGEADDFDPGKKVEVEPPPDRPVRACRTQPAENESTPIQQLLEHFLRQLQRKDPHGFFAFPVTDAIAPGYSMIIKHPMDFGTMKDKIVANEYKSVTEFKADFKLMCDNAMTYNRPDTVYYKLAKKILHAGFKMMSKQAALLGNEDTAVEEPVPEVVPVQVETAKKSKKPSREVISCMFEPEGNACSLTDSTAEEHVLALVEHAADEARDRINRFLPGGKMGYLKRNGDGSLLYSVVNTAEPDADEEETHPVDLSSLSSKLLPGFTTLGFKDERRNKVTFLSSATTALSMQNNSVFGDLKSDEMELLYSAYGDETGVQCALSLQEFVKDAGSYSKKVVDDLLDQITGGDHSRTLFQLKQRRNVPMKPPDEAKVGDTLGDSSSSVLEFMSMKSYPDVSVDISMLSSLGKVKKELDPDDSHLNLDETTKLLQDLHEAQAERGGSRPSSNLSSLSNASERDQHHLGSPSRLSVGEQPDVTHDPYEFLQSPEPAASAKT
Kind of experiment: Assay Protocol 2 - Degradation of BRD9 (IF) in MV4-11 cells. The format is cell-based. The arrangement: host or cells: MV4-11. Particulars: Assay Protocol 2: BRD9 immunofluorescence, 24 hours. As to the method: Assay Protocol 2—Degradation of BRD9 (IF)
A suspension of MV4-11 cells (ATCC CRL-9591) was prepared in phenol red-free assay media (IMDM Thermo Scientific 21056023+10% FBS ATCC 302025) and cells were seeded at 20,000 cells per well (45 μL) in sterile black poly-d-lysine coated 384 well plates (Greiner 781948). Compounds were prepared at 1000× final concentration in DMSO, diluted 1:100 in assay media, and 5 μL compound was added to each well of the cell plate. Cells were incubated for 24 hours at 37° C. with 5% CO2. All the following incubations for immunofluorescence staining were at room temperature. 15 μL of 16% PFA was added to each well (3.7% final concentration) and the cells were fixed for 15 min then washed twice with DPBS. Cells were permeabilised with 0.1% Triton X-100 for 10 min, Triton X-100 was removed, then blocked with 1% BSA in DPBS for 1 hour. Cells were stained with 25 μL anti-BRD9 E4Q3F antibody (CST 48306) diluted 1:25600 in 1% BSA in DPBS for 2-3 hours. Wells were washed twice with DPBS then incubated with 25 μL of 1% BSA containing a 1:1000 dilution of Anti-rabbit Alexa Fluor™ 647 secondary antibody (Thermo Scientific A^21244) and 1 μg/mL Hoechst nuclear counter stain (Abcam ab228551) for 1 hour. Wells were washed twice with DPBS prior to imaging on a Perkin Elmer Operetta CLS with 10× air lens. Images were processed using Harmony High-Content Imaging and Analysis Software (Perkin Elmer) and the mean contrast ratio of Alexa Fluor™ 647 in central nuclei was used to quantify BRD9 protein levels. Data was further analysed using Dotmatics software and % BRD9 remaining was calculated by normalisation to average data from high and low control wells (cells treated with DMSO or 100 nM CFT-8634 respectively).
As to `COc1cc(-c2cn(C)c(=O)c(C)c2C)cc(OC)c1CN1CC2CC1CN2C(=O)/C(C#N)=C/c1nccs1` (mixture of isomers) [BRD9i, (E/Z)-2-(5-(2,6-dimethoxy-4-(1,4,5-trimethyl-6-oxo-1,6-dihydropyridin-3-yl)benzyl)-2,5-diazabicyclo[2.2.1]heptane-2-carbonyl)-3-(thiazol-2-yl)acrylonitrile], the DC50 is > 200 nM and the Dmax was 30 to 50%.

`COc1cc(-c2cn(C)c(=O)c(C)c2C)cc(OC)c1C(=O)N1CCN(C(=O)/C(C#N)=C/C(C)(C)C)CC1` [BRD9s, (E/Z)-2-(4-(2,6-dimethoxy-4-(1,4,5-trimethyl-6-oxo-1,6-dihydropyridin-3-yl)benzoyl)piperazine-1-carbonyl)-4,4-dimethylpent-2-enenitrile] gave a DC50 of 25 to 200 nM.

Molecule `COc1cc(-c2cn(C)c(=O)c(C)c2C)cc(OC)c1C(=O)N1CC2CC1CN2C(=O)/C(C#N)=C/C(C)(C)C` (mixture of isomers) [BRD9t, (E/Z)-2-(5-(2,6-dimethoxy-4-(1,4,5-trimethyl-6-oxo-1,6-dihydropyridin-3-yl)benzoyl)-2,5-diazabicyclo[2.2.1]heptane-2-carbonyl)-4,4-dimethylpent-2-enenitrile] gave a DC50 of 25 to 200 nM.

As for `COc1cc(-c2cn(C)c(=O)c(C)c2C)cc(OC)c1CN1CCN(C(=O)C2CC(C)CN(C(=O)/C(C#N)=C/C(C)(C)C)C2)CC1` (centres unmarked) [BRD9ba, (E)-2-(3-(4-(2,6-dimethoxy-4-(1,4,5-trimethyl-6-oxo-1,6-dihydropyridin-3-yl)benzyl)piperazine-1-carbonyl)-5-methylpiperidine-1-carbonyl)-4,4-dimethylpent-2-enenitrile], the 50% degradation concentration (DC50) is < 25 nM and the Dmax was ≥ 70%.

For `COc1cc(-c2cn(C)c(=O)c(C)c2C)cc(OC)c1CN1C2CC1CN(C(=O)/C(C#N)=C/c1cccc(C(F)(F)F)n1)C2` [BRD9af, (E)-2-(6-(2,6-dimethoxy-4-(1,4,5-trimethyl-6-oxo-1,6-dihydropyridin-3-yl)benzyl)-3,6-diazabicyclo[3.1.1]heptane-3-carbonyl)-3-(6-(trifluoromethyl)pyridin-2-yl)acrylonitrile], the DC50 is < 25 nM and the Dmax was ≥ 70%.

Turning to `COc1cc(-c2cn(C)c(=O)c(C)c2C)cc(OC)c1CN1C2CC1CN(C(=O)/C(C#N)=C/C1(F)CC1)C2` [BRD9ag, (E)-2-(6-(2,6-dimethoxy-4-(1,4,5-trimethyl-6-oxo-1,6-dihydropyridin-3-yl)benzyl)-3,6-diazabicyclo[3.1.1]heptane-3-carbonyl)-3-(1-fluorocyclopropyl)acrylonitrile], the DC50 is < 25 nM and the Dmax is ≥ 70%.

Molecule `COc1cc(-c2cn(C)c(=O)c(C)c2C)cc(OC)c1CN1C[C@@H](C)N(C(=O)/C(C#N)=C/C(C)(C)C)C[C@@H]1C` [BRD9ad, (E)-2-((2R,5S)-4-(2,6-dimethoxy-4-(1,4,5-trimethyl-6-oxo-1,6-dihydropyridin-3-yl)benzyl)-2,5-dimethylpiperazine-1-carbonyl)-4,4-dimethylpent-2-enenitrile] gave a DC50 of 25 to 200 nM and a Dmax of 50 to 70%.

Turning to `COc1cc(-c2cn(C)c(=O)c(C)c2C)cc(OC)c1CN1CC2CC(C1)N2C(=O)/C(C#N)=C/c1cccc(Br)n1` (mixture of isomers) [BRD9m, (E/Z)-3-(6-bromopyridin-2-yl)-2-(3-(2,6-dimethoxy-4-(1,4,5-trimethyl-6-oxo-1,6-dihydropyridin-3-yl)benzyl)-3,6-diazabicyclo[3.1.1]heptane-6-carbonyl)acrylonitrile], the Dmax is ≥ 70%.

`COc1cc(-c2cn(C)c(=O)c(C)c2C)cc(OC)c1C(=O)N1CCCN(C(=O)/C(C#N)=C/C(C)(C)C)CC1` [BRD9v, (E/Z)-2-(4-(2,6-dimethoxy-4-(1,4,5-trimethyl-6-oxo-1,6-dihydropyridin-3-yl)benzoyl)-1,4-diazepane-1-carbonyl)-4,4-dimethylpent-2-enenitrile] came in with a half-maximal degradation concentration (DC50) of 25 to 200 nM.

Take `COc1cc(-c2cn(C)c(=O)c(C)c2C)cc(OC)c1CN1CC2CC1CN2C(=O)/C(C#N)=C/C(C)(C)C` (mixture of isomers) [BRD9b, (E/Z)-2-(5-(2,6-dimethoxy-4-(1,4,5-trimethyl-6-oxo-1,6-dihydropyridin-3-yl)benzyl)-2,5-diazabicyclo[2.2.1]heptane-2-carbonyl)-4,4-dimethylpent-2-enenitrile]: the DC50 is > 200 nM.
